Calls of active or inactive are those of the source.
Key:
cells [1] = assay type: functional, cell-based
cells [2] = assay type: functional, cell-based; remark: listed apart in the source
Melanocortin receptor 4 = Melanocortin receptor 4 (Homo sapiens, UniProt P32245); assay type: functional, cell-based;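 note: Cell-based assay with luminescence read-out, confirmatory dose-response testing for agonist activity of biased ligands at MC4R; human U2OS cells with tagged receptor and beta-arrestin; potency of agonists that increase receptor coupling to beta-arrestin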
Sequence of Melanocortin receptor 4 (P32245 whole entry): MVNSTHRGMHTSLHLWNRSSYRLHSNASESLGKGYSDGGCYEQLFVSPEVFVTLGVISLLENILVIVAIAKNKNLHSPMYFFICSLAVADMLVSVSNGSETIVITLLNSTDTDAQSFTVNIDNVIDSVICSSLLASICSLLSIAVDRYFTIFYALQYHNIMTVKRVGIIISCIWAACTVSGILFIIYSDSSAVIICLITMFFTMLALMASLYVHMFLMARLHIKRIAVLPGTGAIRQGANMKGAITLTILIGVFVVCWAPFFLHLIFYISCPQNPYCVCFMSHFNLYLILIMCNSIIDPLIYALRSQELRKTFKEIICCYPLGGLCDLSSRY

[3] = Counterscreen for inhibitors of Trypanosoma brucei methionyl tRNA synthetase (MetRS): Luminescence-based cell-based high throughput dose response assay to identify compounds that are cytotoxic to Jurkat human T lymphocyte cells.; assay type: functional
[4] = biological target: T1, Methionyl-tRNA synthetase, putative (Trypanosoma brucei brucei, UniProt Q38C91); assay type: functional, Trypanosoma brucei brucei strain 927/4 GUTat10.1
T1 sequence (Q38C91 whole entry): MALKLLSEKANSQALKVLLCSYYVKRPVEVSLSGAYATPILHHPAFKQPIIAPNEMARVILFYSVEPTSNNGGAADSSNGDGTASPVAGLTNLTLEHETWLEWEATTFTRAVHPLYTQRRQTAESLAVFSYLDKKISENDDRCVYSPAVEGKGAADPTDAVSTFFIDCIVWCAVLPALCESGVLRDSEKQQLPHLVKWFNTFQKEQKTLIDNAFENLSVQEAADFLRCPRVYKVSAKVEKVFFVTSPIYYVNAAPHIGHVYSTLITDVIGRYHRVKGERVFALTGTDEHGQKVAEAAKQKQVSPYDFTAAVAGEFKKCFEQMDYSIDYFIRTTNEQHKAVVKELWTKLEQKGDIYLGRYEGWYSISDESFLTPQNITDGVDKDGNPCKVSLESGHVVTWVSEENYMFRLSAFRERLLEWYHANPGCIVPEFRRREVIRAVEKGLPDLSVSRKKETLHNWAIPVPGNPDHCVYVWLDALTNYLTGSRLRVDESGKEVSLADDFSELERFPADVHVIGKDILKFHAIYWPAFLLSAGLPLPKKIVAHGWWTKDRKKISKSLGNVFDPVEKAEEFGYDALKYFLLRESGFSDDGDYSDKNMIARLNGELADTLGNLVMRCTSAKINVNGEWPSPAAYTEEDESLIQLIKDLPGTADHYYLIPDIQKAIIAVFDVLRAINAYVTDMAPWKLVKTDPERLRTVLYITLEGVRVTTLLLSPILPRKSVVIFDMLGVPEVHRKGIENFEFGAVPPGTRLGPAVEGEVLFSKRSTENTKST

cells [5] = assay type: functional
[6] = biological target: T1, Methionyl-tRNA synthetase, putative; assay type: functional, Trypanosoma brucei brucei strain 927/4 GUTat10.1; remark: listed apart in the source
[7] = biological target: T2, Carboxy-terminal domain RNA polymerase II polypeptide A small phosphatase 1 (Homo sapiens, UniProt Q9GZU7); assay: CTDSP1 inhibitors, concentration-response, biochemical, absorbance readout, ultra-high-throughput screen actives (AID 540297); assay type: functional
T2 sequence (Q9GZU7 whole entry): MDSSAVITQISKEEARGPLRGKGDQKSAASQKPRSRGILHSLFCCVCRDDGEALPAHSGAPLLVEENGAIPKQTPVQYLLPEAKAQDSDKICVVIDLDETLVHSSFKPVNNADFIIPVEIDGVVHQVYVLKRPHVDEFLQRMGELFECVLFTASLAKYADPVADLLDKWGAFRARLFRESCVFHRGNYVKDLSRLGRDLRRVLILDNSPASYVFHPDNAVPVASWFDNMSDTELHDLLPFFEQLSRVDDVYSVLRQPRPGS

Vero [8] = assay: cells; assay type: functional, cell-based; details: Chlorocebus sabaeus
Streptococcus = assay: GAS UMAA2166 growth inhibition – luminescence, BacTiterGlo, counter-screen for streptokinase expression inhibitor project, dose response (AID 1915); assay type: functional, organism-based;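 note: potency for reduction of bacterial viability or growth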
Cytochrome P450 3A4 = Cytochrome P450 3A4 (Homo sapiens, UniProt P08684);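 note: CYP3A4 tested as one member of a cytochrome P450 panel screen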
Sequence of Cytochrome P450 3A4 (P08684 whole entry): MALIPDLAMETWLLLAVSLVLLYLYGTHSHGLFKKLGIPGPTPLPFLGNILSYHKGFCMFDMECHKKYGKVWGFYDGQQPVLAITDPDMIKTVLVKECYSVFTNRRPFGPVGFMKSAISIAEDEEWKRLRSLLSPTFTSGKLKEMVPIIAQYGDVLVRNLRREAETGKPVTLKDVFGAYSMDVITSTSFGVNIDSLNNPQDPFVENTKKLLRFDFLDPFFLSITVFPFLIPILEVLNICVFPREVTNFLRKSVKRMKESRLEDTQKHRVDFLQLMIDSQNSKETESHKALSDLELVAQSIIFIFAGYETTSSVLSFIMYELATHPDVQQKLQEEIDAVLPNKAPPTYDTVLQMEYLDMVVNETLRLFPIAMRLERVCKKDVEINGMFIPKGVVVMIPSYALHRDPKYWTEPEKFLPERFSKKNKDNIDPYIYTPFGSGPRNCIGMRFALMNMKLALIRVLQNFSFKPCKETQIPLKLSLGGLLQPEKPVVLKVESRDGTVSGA

Beta-galactosidase = Beta-galactosidase (Escherichia coli, UniProt Q8VNN2); assay: PubChem AID 485352; assay type: functional
Sequence of Beta-galactosidase (Q8VNN2 whole entry): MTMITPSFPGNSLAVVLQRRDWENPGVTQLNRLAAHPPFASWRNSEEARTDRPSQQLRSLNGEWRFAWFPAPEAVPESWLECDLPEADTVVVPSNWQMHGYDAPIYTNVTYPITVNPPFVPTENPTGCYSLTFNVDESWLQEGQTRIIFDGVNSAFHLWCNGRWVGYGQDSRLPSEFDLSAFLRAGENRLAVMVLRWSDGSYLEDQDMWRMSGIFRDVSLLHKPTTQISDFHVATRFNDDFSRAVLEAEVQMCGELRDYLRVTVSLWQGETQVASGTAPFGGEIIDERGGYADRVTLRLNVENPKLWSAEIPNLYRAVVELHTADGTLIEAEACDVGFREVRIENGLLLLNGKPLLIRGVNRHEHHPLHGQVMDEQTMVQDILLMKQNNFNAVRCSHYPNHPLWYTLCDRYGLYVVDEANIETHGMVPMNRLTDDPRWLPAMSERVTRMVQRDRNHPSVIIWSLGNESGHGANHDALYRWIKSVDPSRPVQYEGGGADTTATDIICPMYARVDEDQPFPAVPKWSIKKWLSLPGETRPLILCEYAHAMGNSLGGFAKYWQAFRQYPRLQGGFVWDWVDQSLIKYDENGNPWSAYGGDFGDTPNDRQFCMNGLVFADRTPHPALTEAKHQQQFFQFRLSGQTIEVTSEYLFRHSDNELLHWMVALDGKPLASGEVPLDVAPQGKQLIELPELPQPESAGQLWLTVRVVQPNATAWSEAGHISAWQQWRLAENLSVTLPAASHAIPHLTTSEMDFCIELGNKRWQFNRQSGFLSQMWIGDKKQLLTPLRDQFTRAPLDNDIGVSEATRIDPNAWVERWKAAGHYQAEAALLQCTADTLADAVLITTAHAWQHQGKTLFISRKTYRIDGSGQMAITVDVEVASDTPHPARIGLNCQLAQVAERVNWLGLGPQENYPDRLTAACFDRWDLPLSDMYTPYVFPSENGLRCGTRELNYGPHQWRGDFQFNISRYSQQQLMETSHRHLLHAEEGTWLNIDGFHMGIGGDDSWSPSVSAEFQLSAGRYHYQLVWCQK

Cytochrome P450 1A2 = biological target: T3, Cytochrome P450 1A2 (Homo sapiens, UniProt P05177);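 note: PubChem cytochrome P450 panel assay, CYP1A2 panel member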
T3 sequence (P05177 whole entry): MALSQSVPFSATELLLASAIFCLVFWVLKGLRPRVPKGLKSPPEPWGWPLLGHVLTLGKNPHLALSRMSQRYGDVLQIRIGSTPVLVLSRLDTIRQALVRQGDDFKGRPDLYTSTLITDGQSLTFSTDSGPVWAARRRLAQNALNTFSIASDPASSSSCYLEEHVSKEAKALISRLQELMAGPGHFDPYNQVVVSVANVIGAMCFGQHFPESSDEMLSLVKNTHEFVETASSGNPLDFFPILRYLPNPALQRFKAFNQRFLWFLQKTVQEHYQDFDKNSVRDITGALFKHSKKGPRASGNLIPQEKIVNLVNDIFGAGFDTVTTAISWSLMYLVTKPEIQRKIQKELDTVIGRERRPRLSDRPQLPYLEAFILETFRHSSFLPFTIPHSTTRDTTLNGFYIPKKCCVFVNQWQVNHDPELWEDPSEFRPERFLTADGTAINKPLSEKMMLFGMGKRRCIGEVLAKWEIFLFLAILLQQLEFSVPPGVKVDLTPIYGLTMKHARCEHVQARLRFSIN

[9] = luciferase reporter signal suppression in cells – H4 neuroglioma cells, luminescence, dose response (AID 1990); assay type: functional, cell-based
Cytochrome P450 2C9 = Cytochrome P450 2C9 (Homo sapiens, UniProt P11712)
Sequence of Cytochrome P450 2C9 (P11712 whole entry): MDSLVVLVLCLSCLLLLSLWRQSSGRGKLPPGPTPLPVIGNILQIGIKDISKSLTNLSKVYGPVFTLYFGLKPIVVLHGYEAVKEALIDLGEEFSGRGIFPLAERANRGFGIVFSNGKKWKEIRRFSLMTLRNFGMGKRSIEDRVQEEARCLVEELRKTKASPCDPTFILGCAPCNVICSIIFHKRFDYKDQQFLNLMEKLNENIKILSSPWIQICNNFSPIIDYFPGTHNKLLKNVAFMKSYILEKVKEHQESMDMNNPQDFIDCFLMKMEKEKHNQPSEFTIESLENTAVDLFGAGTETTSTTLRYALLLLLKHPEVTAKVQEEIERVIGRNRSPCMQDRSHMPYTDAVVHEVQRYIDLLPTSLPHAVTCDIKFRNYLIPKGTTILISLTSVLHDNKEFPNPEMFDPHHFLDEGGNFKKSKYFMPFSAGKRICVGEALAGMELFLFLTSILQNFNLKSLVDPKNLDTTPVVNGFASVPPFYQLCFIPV

Vero [10] = assay: cells; assay type: functional; details: Chlorocebus sabaeus
[11] = Luminescence Cell-Based Dose Response HTS to Identify Inhibitors of 5'UTR Stem-Loop Driven Prion Protein mRNA Translation in H4 Neuroglioblastoma Cells. [Related pubchem assays: 1827 (Project Summary), 1813 (Primary HTS)]; assay type: functional
[12] = fluconazole-exposed Candida albicans growth modulators – fluorescence, retest, confirmation (AID 2467); assay type: functional, cell-based
[13] = loss of viability in HepG2 cells – cell-based, CellTiter-Glo, cherry-picked, cytotoxicity control for Shn3 inhibitor project, dose response (AID 624134); assay type: functional
[14] = biological target: T4, Type-1 angiotensin II receptor (Homo sapiens, UniProt P30556); assay: antagonism of angiotensin II type 1 receptor – cell-based, uHTS hits, selectivity assay for APJ receptor antagonist project, dose response (AID 463214); assay type: functional;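 note: antagonist potency against angiotensin II stimulated AT1 response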
T4 sequence (P30556 whole entry): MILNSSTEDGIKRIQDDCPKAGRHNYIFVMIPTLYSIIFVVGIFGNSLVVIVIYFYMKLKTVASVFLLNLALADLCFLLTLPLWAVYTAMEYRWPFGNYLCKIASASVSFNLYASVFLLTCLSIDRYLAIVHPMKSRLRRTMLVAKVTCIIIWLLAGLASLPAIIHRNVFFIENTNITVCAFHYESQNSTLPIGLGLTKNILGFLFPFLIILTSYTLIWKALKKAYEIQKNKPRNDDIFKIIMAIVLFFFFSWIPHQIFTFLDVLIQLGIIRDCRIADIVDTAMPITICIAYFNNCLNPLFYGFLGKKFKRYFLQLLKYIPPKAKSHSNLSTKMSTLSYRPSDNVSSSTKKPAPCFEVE

[15] = NIH-3T3 fibroblast cytotoxicity, dose response, cytotoxicity control, cell-based, fluorescence, Alamar Blue, secondary assay (AID 2327); assay type: functional;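 note: NIH-3T3 mouse fibroblasts cultured with fluconazole at 8 µg/mL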
[16] = reduction of Shn3 3'UTR-driven luciferase in osteoblasts – cell-based, Clone20 osteoblasts, firefly luciferase, cherry-picked, dose response (AID 624132); assay type: functional;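 note: firefly luciferase luminescence from reporter carrying the Shn3 3'UTR in osteoblasts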
[17] = non-specific 3'UTR reporter inhibition in Clone20-Shn3RL – cell-based, Renilla luciferase, cherry-picked, counter-screen for Shn3 inhibitor project, dose response (AID 624133); assay type: functional
cells [18] = assay type: functional, cell-based; remark: listed apart in the source
Cytochrome P450 2C19 = Cytochrome P450 2C19 (Homo sapiens, UniProt P33261); assay: Cytochrome panel assay with activity outcomes. Panel member name: p450-cyp2c19 Compounds with AC50 equal or less than 10 uM are considered active; assay type: functional; details: read-out: AC50
Sequence of Cytochrome P450 2C19 (P33261 whole entry): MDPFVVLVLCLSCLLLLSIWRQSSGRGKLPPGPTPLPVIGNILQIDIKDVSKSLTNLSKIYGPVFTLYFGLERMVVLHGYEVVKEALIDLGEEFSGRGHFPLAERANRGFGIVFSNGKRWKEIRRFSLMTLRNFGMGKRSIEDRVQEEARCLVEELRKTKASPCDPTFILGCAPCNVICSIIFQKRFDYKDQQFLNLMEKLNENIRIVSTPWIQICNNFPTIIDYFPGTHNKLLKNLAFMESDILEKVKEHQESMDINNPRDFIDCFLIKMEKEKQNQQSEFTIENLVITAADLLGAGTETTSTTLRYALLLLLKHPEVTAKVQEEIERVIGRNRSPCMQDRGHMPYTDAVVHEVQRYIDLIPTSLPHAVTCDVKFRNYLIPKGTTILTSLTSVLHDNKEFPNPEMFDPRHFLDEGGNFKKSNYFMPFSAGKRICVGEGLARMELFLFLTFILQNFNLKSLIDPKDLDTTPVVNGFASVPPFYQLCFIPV

cells [19] = assay type: functional, cell-based; remark: listed apart in the source
[20] = Trypanosoma cruzi growth suppression in host cells – NIH3T3 host cells, beta-gal luminescence, confirmation (AID 2044); assay type: functional, cell-based;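 note: intracellular parasites grown in NIH/3T3 mouse fibroblasts as host cells; luminescent beta-galactosidase reporter signal from transgenic T. cruzi replicating inside host cells; inhibitors lower the luminescence signal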
[21] = NIH3T3 cell viability loss – ATP luminescence, mouse fibroblasts, counter-screen, dose response (AID 2010); assay type: functional, cell-based;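 note: cells exposed to compound for about 90 hours before reading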
[22] = alpha-synuclein stem-loop luciferase translation blockers – H4 neuroglioma cells, luminescence, confirmation (AID 1988); assay type: functional, cell-based
[23] = tested on: Streptococcus sp. 'group A'; assay: Streptococcus pyogenes SK(-)GAS viability under kanamycin – luminescence, BacTiterGlo, confirmation, counter-screen for streptokinase expression inhibitor project, dose response (AID 1900); assay type: functional, organism-based
[24] = biological target: T5, Rac GTPase-activating protein 1 (Homo sapiens, UniProt Q9H0H5); assay: blockers of MgcRacGAP-driven Rac1 GTP hydrolysis – biochemical, ADP Hunter fluorescence, primary and confirmatory, confirmation (AID 624330); assay type: functional
T5 sequence (Q9H0H5 whole entry): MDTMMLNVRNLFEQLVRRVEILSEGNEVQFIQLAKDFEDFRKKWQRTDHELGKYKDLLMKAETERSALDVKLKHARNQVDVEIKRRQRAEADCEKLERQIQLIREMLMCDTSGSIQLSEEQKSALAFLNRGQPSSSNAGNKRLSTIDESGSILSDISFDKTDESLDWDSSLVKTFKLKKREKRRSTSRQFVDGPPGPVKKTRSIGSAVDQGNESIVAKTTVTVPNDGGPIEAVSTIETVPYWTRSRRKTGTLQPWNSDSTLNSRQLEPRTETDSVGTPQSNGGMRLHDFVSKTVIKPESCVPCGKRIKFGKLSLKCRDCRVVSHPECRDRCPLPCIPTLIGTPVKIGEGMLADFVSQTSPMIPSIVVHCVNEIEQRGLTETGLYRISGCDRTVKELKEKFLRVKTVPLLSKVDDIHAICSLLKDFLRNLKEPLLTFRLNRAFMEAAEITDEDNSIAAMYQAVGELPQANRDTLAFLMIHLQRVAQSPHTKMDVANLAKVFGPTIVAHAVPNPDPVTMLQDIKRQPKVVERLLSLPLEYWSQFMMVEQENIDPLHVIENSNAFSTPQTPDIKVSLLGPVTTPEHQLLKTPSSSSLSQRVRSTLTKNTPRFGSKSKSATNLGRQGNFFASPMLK

[25] = general mammalian cell viability loss – inhibitor set, cherry-pick, set 2, cytotoxicity control for miR-122 modulator project, dose response (AID 720697); assay type: functional, cell-based
[26] = biological target: NAD-dependent protein deacylase sirtuin-5, mitochondrial (Homo sapiens, UniProt Q9NXA8); assay: sirtuin-5 deacylation blockers, concentration series – biochemical, fluorescence imaging, cherry-pick, set 5, dose response (AID 720591);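 note: desuccinylation of succinyl peptide AMC substrate read as fluorescence after trypsin release; potency of inhibitors that lower fluorescence and may act on trypsin instead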
Sequence of NAD-dependent protein deacylase sirtuin-5, mitochondrial (Q9NXA8 whole entry): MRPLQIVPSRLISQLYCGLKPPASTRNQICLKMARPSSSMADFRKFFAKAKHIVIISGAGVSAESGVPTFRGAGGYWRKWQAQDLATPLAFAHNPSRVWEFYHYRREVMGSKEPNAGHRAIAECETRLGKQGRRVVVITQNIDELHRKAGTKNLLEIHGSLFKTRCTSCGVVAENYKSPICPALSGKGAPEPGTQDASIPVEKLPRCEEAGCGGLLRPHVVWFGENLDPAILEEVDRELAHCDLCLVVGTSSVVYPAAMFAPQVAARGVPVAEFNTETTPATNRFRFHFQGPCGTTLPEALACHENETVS

## CC(=O)Nc1ccc(NC(=O)Nc2ccccc2)cc1
Cells [1]
  IC50: > 29.9 µM (inactive)
Cells [2]
  EC50: > 29.9 µM (inactive)

## COc1ccc(-c2cc(NC(C)=O)c3ncc(-c4ccc(F)cc4)n3c2)cc1OC
Melanocortin receptor 4
  EC50: > 89.2 µM (inactive)

## O=C(C/C=N\OCc1ccc([N+](=O)[O-])cc1)Nc1ccc(Cl)cc1
[3]
  IC50: 83.3 µM (inactive)
[4]
  IC50: 1.73 µM (active)
Cells [5]
  IC50: 25.5 µM (active)
[6]
  IC50: 2.56 µM (active)

## COC(=O)C1=COC(OC2OC(CO)C(O)C(O)C2O)C2C1C=CC2(O)CO (centres undefined)
[7]
  IC50: 3.19 µM (active)

## O=C(NNC(=O)c1ccc(NC(=O)c2ccccc2)cc1)Nc1ccccc1
[7]
  IC50: 7.38 µM (active)

## C=CCn1c(COc2ccc(F)cc2)nnc1SCC(=O)NC(=O)NCc1ccco1
[7]
  IC50: 15.9 µM (active)

## Cc1nc(-n2nc3c(c2O)CCCC3)[nH]c(=O)c1Cc1ccccc1
Vero [8]
  IC50: > 25 µM (active)
Streptococcus
  EC50: 4.47 µM (active)
Cytochrome P450 3A4
  AC50: inconclusive
Beta-galactosidase
  EC50: > 40 µM (inactive)
Cytochrome P450 1A2
  AC50: 14.1 µM (inconclusive)
[9]
  EC50: 8.07 µM (active)
Cytochrome P450 2C9
  AC50: 4.47 µM (inconclusive)
Vero [10]
  CC50: 9.47 µM (active)
[11]
  EC50: 14.9 µM (active)
[12]
  EC50: 0.554 µM (active)
[13]
  AC50: 57 µM (active)
[14]
  IC50: 14.2 µM (active)
[15]
  EC50: > 150 µM (inconclusive)
[16]
  AC50: 4.44 µM (active)
[17]
  AC50: 2.37 µM (active)
Cells [18]
  EC50: 16.8 µM (active)
Cytochrome P450 2C19
  AC50: 25.1 µM (inconclusive)
Cells [19]
  EC50: > 350 µM (not active)
[20]
  EC50: 1.17 µM (active)
[21]
  EC50: 1.06 µM (active)
[22]
  EC50: 6.76 µM (active)
[23]
  EC50: 1.14 µM (active)

## O=C(CC(=O)Nc1ccc(Cl)c(Cl)c1)N/N=C/c1ccc(O)cc1
[3]
  IC50: 83.3 µM (inactive)
[24]
  IC50: 74 µM (active)
[4]
  IC50: 43.9 µM (inactive)
[6]
  IC50: 25.3 µM (inactive)

## CCCCc1cc(=O)oc2cc(C)cc(OC(C)C(=O)O)c12 (centres undefined)
[25]
  AC50: 1.08 µM (active)

## O=C(C[C@@H]1C=C[C@H](NC(=O)Cc2ccccn2)[C@@H](CO)O1)NCCc1ccccc1
Cells [1]
  IC50: > 29.9 µM (inactive)
Cells [2]
  EC50: > 29.9 µM (inactive)

## Cc1ccc(S(=O)(=O)OCC(=O)Nc2ccc(C(=O)O)c(O)c2)cc1
[26]
  AC50: 4.19 µM (active)
[7]
  IC50: 4.64 µM (active)

## Cc1c(NS(=O)(=O)c2cc(C(=O)NCc3cccc(Cl)c3)ccc2Cl)c(=O)n(-c2ccccc2)n1C
[3]
  IC50: 83.3 µM (inactive)
[4]
  IC50: 26.8 µM (inactive)
[6]
  IC50: 94.9 µM (inactive)

## Cc1ccc(-c2c[nH]c(C(O)c3cc(Cl)cc(Cl)c3)n2)cc1 (centres undefined)
[3]
  IC50: 74.7 µM (inactive)
[4]
  IC50: 6.3 µM (active)
[6]
  IC50: 15.3 µM (inactive)

## CO[C@H]1CN(C)C(=O)c2cc(NC(=O)c3ccccc3F)ccc2OC[C@@H](C)N(C)C[C@@H]1C
[25]
  AC50: 10.6 µM (active)

## COc1ccccc1-c1cc(NC(C)=O)c2ncc(-c3cccc(C(F)(F)F)c3)n2c1
Melanocortin receptor 4
  EC50: > 89.2 µM (inactive)
